In US5474928A, “Arginine deiminase from a Mycoplasma arginini strain” (Nippon Mining Company, Limited, priority 1989, dated 1995):

Legend:
[1] = target: T1, Mycoplasma arginini (IFO 14476) arginine deiminase (EC 3.5.3.6), present invention, amino acid sequence of FIG. 4 (Mycoplasmopsis arginini, UniProt P23793); experiment: Km determination by Lineweaver-Burk plot analysis, citrulline formation assay; format: biochemical; conditions: purified enzyme from M. arginini, substrate L-arginine
T1 construct: Arginine deiminase was purified from the M. arginini cell extract; endogenous in cells; host or cells: Mycoplasma arginini IFO 14476 cells (strain from the Institute for Fermentation, Osaka); enzyme purified in house by three chromatography steps
T1 sequence (P23793 whole entry): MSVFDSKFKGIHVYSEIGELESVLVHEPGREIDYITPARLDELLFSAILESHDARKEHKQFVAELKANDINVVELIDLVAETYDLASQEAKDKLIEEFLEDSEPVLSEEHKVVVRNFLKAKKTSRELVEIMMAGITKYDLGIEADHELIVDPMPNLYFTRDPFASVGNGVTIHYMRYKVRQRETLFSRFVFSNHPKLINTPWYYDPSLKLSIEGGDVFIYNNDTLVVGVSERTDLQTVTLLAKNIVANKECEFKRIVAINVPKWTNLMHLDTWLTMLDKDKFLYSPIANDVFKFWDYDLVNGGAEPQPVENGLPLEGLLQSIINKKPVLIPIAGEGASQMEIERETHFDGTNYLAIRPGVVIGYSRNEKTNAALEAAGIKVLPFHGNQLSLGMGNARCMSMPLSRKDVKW
Experimental: The activity of arginine deiminase can be determined by causing it to produce citrulline using the method reported by Fenske et. al. [J. Bacteriol. 126, 501-510 (1976)], and by measuring the amount of the yields using the method given by Archibald [J. Biol. Chem. 156, 121-142 (1944)].
Specifically, 20 μl of arginine deiminase solution is added to 1.0 ml of 10 mM arginine [dissolved in 0.1M phosphate buffer of pH 7.0], then an enzyme reaction is allowed to take place at 37° C. for 10 minutes, and the reaction is terminated by adding 1 ml of mixed acid solution (H2 SO4 :H3 PO4 =1:3). Then, the resultant reactive solution is added with 25 μl of 3% aqueous diacetylmonooxim solution, heated at 100° C. for 20 minutes under a light-shielded condition, left to cool under a room temperature for 30 minutes, and then the amount of the citrulline yield is measured quantitatively by measuring the absorbence at 490 nm. The activity of arginine deiminase producing 1 μmol of citrulline in one minute is defined as 1 unit.
v) Km value and Vmax value
By the Lineweaver-Burk plot analysis Km and Vmax were determined as 0.2 mM and 50 U/mg, respectively.

[2] = system: M. hominis arginine deiminase; conditions: literature value, Table 1; substrate L-arginine; cited from earlier work
[3] = system: Strepto- faecalis arginine deiminase; conditions: literature value, Table 1; substrate L-arginine; cited from earlier work
[4] = system: M. arthritidis arginine deiminase; conditions: literature value, Table 1; substrate L-arginine; cited from earlier work

Compound: N=C(N)NCCC[C@H](N)C(=O)O [L-arginine]
- Km [1]: ~200 µM
- Km [2]: 100 to 400 µM
- Km [3]: 150 µM
- Km [4]: 4 µM
